Patent publication US20250270216A1, “ANTI-INFECTIVE AGENTS” (UNIVERSITY OF DUNDEE, priority 2022, published 2025)

How the values were obtained:
[1] = tested on: Hep G2 (Human hepatocyte carcinoma); assay: In vitro inhibition of HepG2 cells (cytotoxicity); type: cell-based; settings: read-out: Hs HepG2 PEC50 (converted)
Description: Assay Method for Measurement of In Vitro Inhibition of HepG2 Cells (Cytotoxicity)
These experiments were run in accordance with the method of Mersch-Sundermann V et. al. Toxicology 2004, 198:329-340

[2] = target: T1, Human lysyl tRNA Synthetase (KRS) (Homo sapiens, UniProt Q15046); assay: In vitro inhibition of human lysyl tRNA synthetase (KRS), Biomol green phosphate detection; type: biochemical; settings: 3.5 μM ATP, 6 μM L-Lysine, 5 h room temperature; read-out: Hs KRS pIC50 (converted)
T1 construct: His tag with PreScission site (His PP pET15b); made in house; host or cells: E. coli BL21 (DE3)
Protocol: The gene coding for Human KRS, codon optimized for expression in E. coli, was obtained from Genscript and cloned into a His PP pET15b vector using Nde1 and Xho1 restriction sites. The resulting vector was used to transform BL21 (DE3) competent cells for protein expression. A 120 ml overnight culture was set up and grown at 37° C. 200 rpm for 16 h and used the next day to inoculate 6 litres of Autoinduction+AMP medium. This culture was grown at 37° C. for 4 h then 20° C. for 20 h. The cells were harvested by centrifugation at 3,500 g for 30 min then stored at −20° C. The resulting cell pellet was 50 g. Lysis buffer (150 ml, 25 mM HEPES/500 mM NaCl/20 mM imidazole/2 mM DTT/10% glycerol pH 7.5/protease inhibitor tablets/DNAase) was added and the pellets for defrosted at room temperature for approximately 10 min. The slurry was then passed through a Cell Disrupter (Constant Systems) set at […] to lyse the cells. The sample was then centrifuged at 40,000 g for 20 min. The supernatant was then filtered using syringe filters to 0.45 μm. The supernatant was loaded onto a 5 ml HiTrap Ni HP column that had been equilibrated with BufferA (25 mM HEPES/500 mM NaCl/20 mM Imidazole/2 mM DTT/10% Glycerol pH 7.5) at 5 ml/min using an AKTA Pure system. Once loaded the column was washed with 10 column volumes buffer A. A 5% step of Buffer B (25 mM HEPES/500 mM NaCl/500 mM Imidazole/2 mM DTT/10% Glycerol pH 7.5) was then used to wash off His rich contaminating proteins. A gradient of 5-50% B was used to elute the protein. Approximately 55 mg of protein was present in the fractions containing the HsKRS protein. The sample was then passed through a 0.2 μm filter, before loading onto a XK26/60 Superdex 200 column equilibrated with Buffer C (25 mM HEPES/150 mM NaCl/2 mM DTT/10% glycerol pH 7.0) using an AKTA Pure system at 4° C. at 2 ml/min. The sample was then dialyzed into 25 mM HEPES/500 mM NaCl//2 mM DTT/10% glycerol/0.25% azide pH 7.0. The protein was concentrated to 1 mg/ml and frozen at −80° C. Approximately 23 mg of protein was produced.
Assay Method for Measurement of In Vitro Inhibition of Human lysyl tRNA Synthetase (KRS)
Potency of compounds was determined in 10 points dose-response inhibition curves. Compounds were transferred into 384-well clear bottom plates (Greiner Bio-One, 781101) using an Echo 550 acoustic dispenser (Labcyte). Using an automatic liquid dispenser, 50 μL reaction mixes were prepared by adding 25 μL of substrate mix into all wells followed by the addition of 25 μL enzyme mix into all wells (final reaction: 30 mM Tris-HCl, pH 8.0, 40 mM MgCl2, 140 mM NaCl, 30 mM KCl, 0.01% Brij-35, 1 mM DTT, 3.5 μM ATP, 6 μM L-Lysine, 200 nM […] and 0.5 U/mL Pyrophosphatase). Complete inhibition control reactions were performed in the presence of 100 μM of control compoundand the plates were incubated at room temperature for 5 h. Reactions were stopped by the addition of Biomol green (50 μL: Enzo Life Sciences) with the amount of free phosphate detected by measuring absorbance (650 nm) after 20 min further incubation (BMG Pherastar plate reader). Counter screen assays to eliminate direct inhibition of pyrophsphatase were performed using 0.5 U/mL pyrophosphatase and 3 μM pyrophosphate as substrate in the same assay buffer (30 mM Tris-HCl, pH 8.0, 40 mM MgCl2, 140 mM NaCl, 30 mM KCl, 0.01% Brij-35, 1 mM DTT) for 5 hours at room temperature. Biomol green was added and incubated for 20 min before detection as above. Samples were run in duplicate and data was processed and analysed using ActivityBase (IDBS).

[3] = target: Cryptosporidium parvum lysyl t-RNA synthetase (Cp KRS) (Cryptosporidium parvum, UniProt Q5CR27); assay: In vitro inhibition of Cryptosporidium lysyl tRNA synthetase (KRS), Biomol green phosphate detection; type: biochemical; settings: 300 nM CpKRS, 500 μM ATP, 1.2 mM L-Lysine, 8 h room temperature; read-out: C. parvum KRS pIC50 (converted)
Description: The protein expression and purification method for recombinant CpKRS was described in Baragana et aL, PNAS, 2019, 116 (4), 7015-7020 and will be summarised below.
The C. parvum KRS had 45 residues removed at the N-terminus. All amplicons were cloned into the pAVA0421 expression vector using the ligation independent cloning (LIC) method. Recombinant plasmids were transformed into Rosetta BL21(DE3) competent cells and plated on LB agar plates with ampicillin, carbenicillin, and chloramphenicol selection. Clones were expressed using previously reported autoinduction methods and scaled to 2-litre cultures in a shake flasks. Cell pellets were harvested and lysed with 100 mM HEPES/150 mM NaCl/5% Glycerol/20 mM imidazole/0.5 mM TCEP pH 7.5/DNase/Complete inhibitor tablets) using a Cell Disrupter (Constant Systems) at 30 KPSI and centrifuged at 40,000 g for 20 min remove cell debris. The supernatant was loaded onto a 5 ml HiTrap Ni HP column that had been equilibrated with Buffer A (100 mM HEPES/150 mM NaCl/5% Glycerol/20 mM imidazole/0.5 mM TCEP pH 7.5) at 5 ml/min using an AKTA Pure system. Once loaded the column was washed with 10 column volumes of buffer A. A 5% step of Buffer B (100 mM HEPES/150 mM NaCl/5% Glycerol/500 mM imidazole/0.5 mM TCEP pH 7.5) was then used to wash off His-rich contaminating proteins. A linear gradient of 5-50% B was used to elute the protein. Approximately 287 mg of protein was present in the fractions containing the CpKRS protein. The sample was then concentrated to approximately 30 ml, passed through a 0.2 μm filter, before loading onto a XK26/60 Superdex 200 column using an AKTA Pure system at 4° C. at 2 ml/min 10 ml at a time. The eluted protein was pooled then frozen at −80° C. The concentration of the protein was 1.3 mg/ml. Sometimes the protein was cleaved with PreScission protease overnight, a second Ni column performed in flow through mode to removed uncleaved protein. GST beads were then added to remove the PreScission Protease. The protein was then gel filtered as descripted above.
Assay Method for Measurement of In Vitro Inhibition of Cryptosporidium lysyl tRNA Synthetase (KRS)
Potency of compounds was determined in 10 points dose-response inhibition curves. Compounds were transferred into 384-well clear bottom plates (Greiner Bio-One, 781101) using an Echo 550 acoustic dispenser (Labcyte). Using an automatic liquid dispenser, 50 μL reaction mixes were prepared by adding 25 μL of substrate mix into all wells followed by the addition of 25 μL enzyme mix into compounds and no inhibition control wells (final reaction: 100 mM HEPES, pH 7.4, 20 mM MgCl2, 1 mM DTT, 500 μM ATP, 1.2 mM L-Lysine, 300 nM CpKRS and 0.5 U/mL Pyrophosphatase). Complete inhibition control reactions were performed in the absence of enzyme and the plates were incubated at room temperature for 8 h. Reactions were stopped by the addition of Biomol green (50 μL: Enzo Life Sciences) with the amount of free phosphate detected by measuring absorbance (650 nm) after 20 min further incubation (BMG Pherastar plate reader). Counter screen assays to eliminate direct inhibition of pyrophosphatase were performed using 0.5 U/mL pyrophosphatase and 3 μM pyrophosphate as substrate in the same assay buffer (100 mM HEPES, pH 7.4, 20 mM MgCl2, 1 mM DTT) for 8 hours at room temperature. Biomol green was added and incubated for 20 min before detection as above. Samples were run in duplicate and data was processed and analysed using ActivityBase (IDBS).

Cryptosporidium parvum = assay: In vitro inhibition of Cryptosporidium (method of Bessoff et al.); type: cell-based; settings: read-out: C. parvum PEC50 (converted)
Description: Assay Method for Measurement of In Vitro Inhibition of Cryptosporidium
These experiments were run in accordance with the method of Besssoff et. al. Antimicrob. Agents Chemother. 2013, 57:1804-1814. Results from these experiments are provided in the Experimental Results hereinafter.

Cryptosporidium = settings: Cryptosporidium-HIV co-infected patients not co-treated with HIV antiretroviral therapy; cited from earlier work
PfLysRS = PfLysRS (Plasmodium falciparum, UniProt Q8IDJ8); settings: Hoepfner et al, Cell Host Microbe, 2012; cited from earlier work
Sequence of PfLysRS (Q8IDJ8 1-583): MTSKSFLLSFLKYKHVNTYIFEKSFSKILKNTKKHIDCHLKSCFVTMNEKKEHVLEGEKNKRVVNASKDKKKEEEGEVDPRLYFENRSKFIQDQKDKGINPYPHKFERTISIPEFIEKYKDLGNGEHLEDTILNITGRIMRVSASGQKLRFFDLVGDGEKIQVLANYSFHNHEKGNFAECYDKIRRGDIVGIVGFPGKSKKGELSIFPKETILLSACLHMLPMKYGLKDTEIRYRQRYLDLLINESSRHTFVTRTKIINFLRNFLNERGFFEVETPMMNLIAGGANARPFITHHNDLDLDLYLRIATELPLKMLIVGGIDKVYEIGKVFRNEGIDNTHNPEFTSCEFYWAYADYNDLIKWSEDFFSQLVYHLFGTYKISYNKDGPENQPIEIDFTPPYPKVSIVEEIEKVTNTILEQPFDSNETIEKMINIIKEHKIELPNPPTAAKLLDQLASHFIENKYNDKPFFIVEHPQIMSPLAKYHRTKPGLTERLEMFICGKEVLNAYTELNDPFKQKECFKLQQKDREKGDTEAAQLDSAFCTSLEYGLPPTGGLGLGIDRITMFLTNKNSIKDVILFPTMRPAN

T1 sequence (Q15046 whole entry): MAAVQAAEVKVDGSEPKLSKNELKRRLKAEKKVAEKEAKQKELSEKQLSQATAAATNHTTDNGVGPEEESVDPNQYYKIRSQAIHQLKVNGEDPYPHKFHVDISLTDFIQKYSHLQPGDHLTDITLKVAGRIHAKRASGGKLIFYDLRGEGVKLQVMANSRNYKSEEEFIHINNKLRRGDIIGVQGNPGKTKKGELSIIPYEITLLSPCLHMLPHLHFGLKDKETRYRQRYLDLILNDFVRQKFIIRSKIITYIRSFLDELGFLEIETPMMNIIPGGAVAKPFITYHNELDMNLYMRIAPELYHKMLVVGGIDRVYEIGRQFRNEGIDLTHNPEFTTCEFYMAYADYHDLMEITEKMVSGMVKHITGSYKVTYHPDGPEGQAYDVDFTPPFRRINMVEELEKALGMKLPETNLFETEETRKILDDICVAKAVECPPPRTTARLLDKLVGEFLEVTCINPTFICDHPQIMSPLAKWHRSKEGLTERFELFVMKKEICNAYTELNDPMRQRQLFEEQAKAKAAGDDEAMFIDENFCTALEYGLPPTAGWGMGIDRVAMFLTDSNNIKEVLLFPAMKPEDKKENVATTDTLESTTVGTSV
Sequence of Cryptosporidium parvum lysyl t-RNA synthetase (Cp KRS) (Q5CR27 entry or part of it): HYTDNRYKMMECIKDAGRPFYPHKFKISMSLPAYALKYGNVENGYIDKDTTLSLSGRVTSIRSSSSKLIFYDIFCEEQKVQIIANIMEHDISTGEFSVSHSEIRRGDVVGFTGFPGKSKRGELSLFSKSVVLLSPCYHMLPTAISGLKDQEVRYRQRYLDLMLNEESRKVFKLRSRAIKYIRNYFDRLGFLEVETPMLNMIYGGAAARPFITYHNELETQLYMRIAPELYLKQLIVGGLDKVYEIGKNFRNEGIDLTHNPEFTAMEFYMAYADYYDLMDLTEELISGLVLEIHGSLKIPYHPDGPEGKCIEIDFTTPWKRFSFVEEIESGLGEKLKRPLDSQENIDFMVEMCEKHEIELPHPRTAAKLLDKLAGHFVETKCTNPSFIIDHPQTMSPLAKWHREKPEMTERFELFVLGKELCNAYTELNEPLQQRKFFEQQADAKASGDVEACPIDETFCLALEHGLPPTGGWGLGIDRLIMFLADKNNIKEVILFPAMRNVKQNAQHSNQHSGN

| SMILES | IC50 [2] [µM] | IC50 [3] [µM] | EC50 (Cryptosporidium parvum) [µM] | EC50 [1] [µM] | efficacy in clinical trials (Cryptosporidium) | selectivity for PfLysRS vs HsLysRS (PfLysRS) |
| --- | --- | --- | --- | --- | --- | --- |
| Nc1nc2c(c(C(F)(F)F)n1)C(=O)N(C[C@H]1CCC[C@@H](C(F)(F)F)C1)C2 [Compound 6, 2-amino-4-(trifluoromethyl)-6-(((1S,3R)-3-(trifluoromethyl)cyclohexyl)methyl)-6,7-dihydro-5H-pyrrolo[3,4-d]pyrimidin-5-one] | > 100 | > 50.1 |  | > 100 |  |  |
| CC(=O)Oc1ccccc1C(=O)Nc1ncc([N+](=O)[O-])s1 [Nitazoxanide] |  |  |  |  | ineffective |  |
| C[C@H]1CCC[C@H](C[C@H]2Cc3cc(O)cc(O)c3C(=O)O2)O1 [Cladosporin, cladosporin] |  |  |  |  |  | more than 100 fold |

Further lines, with some results ahead:

| IC50 [2] [µM] | IC50 [3] [µM] | EC50 (Cryptosporidium parvum) [µM] | SMILES | EC50 [1] [µM] | efficacy in clinical trials (Cryptosporidium) | selectivity for PfLysRS vs HsLysRS (PfLysRS) |
| --- | --- | --- | --- | --- | --- | --- |
| 63.1 | 15.8 |  | Nc1nc2c(c(C(F)(F)F)n1)C(=O)N(C[C@H]1CCC[C@H](C(F)(F)F)C1)C2 [Compound 7, 2-amino-4-(trifluoromethyl)-6-(((1S,3S)-3-(trifluoromethyl)cyclohexyl)methyl)-6,7-dihydro-5H-pyrrolo[3,4-d]pyrimidin-5-one] | 79.4 |  |  |
| 20 | 1.58 | 0.0501 | Nc1nc2c(c(C(F)(F)F)n1)C(=O)N(C[C@@H]1CCC[C@@H](C(F)(F)F)C1)C2 [Compound 5, 2-amino-4-(trifluoromethyl)-6-(((1R,3R)-3-(trifluoromethyl)cyclohexyl)methyl)-6,7-dihydro-5H-pyrrolo[3,4-d]pyrimidin-5-one] | 15.8 |  |  |
